In patent US12281122B1, “PI3K inhibitors” (Cogent Biosciences, Inc., priority 2023, dated 2025):

How the values were obtained:
[1] = target: PI3Kα (Homo sapiens, UniProt P42336); assay: PI3Kα enzyme assay (Transcreener ADP2 TR-FRET Red Assay); format: biochemical; conditions: purified recombinant full-length protein; 2 hours pre-incubation with compound; read-out: PI3Kα WT IC50
Procedure, shortened: (§1)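 Purified recombinant full-length enzymes pre-incubated 2 h at room temperature with compounds (11-point 1:3 dilutions, typically 50,000–0.85 nM), then started with ATP/PI(4,5)P2 diC8 and run 60 min at room temperature in 40 mM HEPES pH 7.5, 20 mM NaCl, 25 mM MgCl2, 0.01% Triton X-100. ADP detected by TR-FRET 665/615 ratio; IC50 from four-parameter fit of percent of control.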

[2] = target: PI3Kα H1047R (Homo sapiens, UniProt P42336, H1047R); assay: PI3Kα H1047R enzyme assay (Transcreener ADP2 TR-FRET Red Assay); format: biochemical; conditions: purified recombinant full-length protein; 2 hours pre-incubation with compound
PI3Kα H1047R, sequence (P42336 whole entry H1047R): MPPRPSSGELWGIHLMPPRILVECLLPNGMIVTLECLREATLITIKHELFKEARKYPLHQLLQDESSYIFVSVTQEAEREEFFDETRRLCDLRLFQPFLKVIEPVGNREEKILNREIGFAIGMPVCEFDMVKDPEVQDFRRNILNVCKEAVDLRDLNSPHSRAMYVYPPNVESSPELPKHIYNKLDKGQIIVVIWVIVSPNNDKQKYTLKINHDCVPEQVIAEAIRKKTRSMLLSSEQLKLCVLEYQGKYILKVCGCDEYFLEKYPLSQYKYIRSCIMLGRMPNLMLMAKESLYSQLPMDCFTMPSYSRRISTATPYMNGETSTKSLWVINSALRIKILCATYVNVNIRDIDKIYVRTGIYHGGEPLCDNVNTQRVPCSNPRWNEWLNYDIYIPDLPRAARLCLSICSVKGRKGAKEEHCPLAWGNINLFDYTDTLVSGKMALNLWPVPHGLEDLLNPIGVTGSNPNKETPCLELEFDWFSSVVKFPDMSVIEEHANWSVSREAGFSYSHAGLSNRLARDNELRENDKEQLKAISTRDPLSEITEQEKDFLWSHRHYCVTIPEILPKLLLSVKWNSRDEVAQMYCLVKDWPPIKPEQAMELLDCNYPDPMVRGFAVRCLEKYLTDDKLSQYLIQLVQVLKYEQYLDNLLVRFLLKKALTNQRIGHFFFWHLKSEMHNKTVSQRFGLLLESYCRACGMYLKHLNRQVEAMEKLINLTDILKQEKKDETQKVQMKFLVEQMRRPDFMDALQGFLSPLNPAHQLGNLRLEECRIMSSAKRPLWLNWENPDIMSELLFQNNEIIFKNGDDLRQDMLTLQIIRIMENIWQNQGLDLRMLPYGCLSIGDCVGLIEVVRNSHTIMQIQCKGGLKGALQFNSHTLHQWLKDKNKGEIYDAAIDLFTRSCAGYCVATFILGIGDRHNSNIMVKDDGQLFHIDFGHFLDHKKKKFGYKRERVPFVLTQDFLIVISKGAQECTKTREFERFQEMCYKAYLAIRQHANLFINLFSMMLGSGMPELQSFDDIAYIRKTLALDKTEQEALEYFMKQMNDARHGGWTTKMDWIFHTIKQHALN
PI3Kα H1047R, sequence (P27986 2-724 partner): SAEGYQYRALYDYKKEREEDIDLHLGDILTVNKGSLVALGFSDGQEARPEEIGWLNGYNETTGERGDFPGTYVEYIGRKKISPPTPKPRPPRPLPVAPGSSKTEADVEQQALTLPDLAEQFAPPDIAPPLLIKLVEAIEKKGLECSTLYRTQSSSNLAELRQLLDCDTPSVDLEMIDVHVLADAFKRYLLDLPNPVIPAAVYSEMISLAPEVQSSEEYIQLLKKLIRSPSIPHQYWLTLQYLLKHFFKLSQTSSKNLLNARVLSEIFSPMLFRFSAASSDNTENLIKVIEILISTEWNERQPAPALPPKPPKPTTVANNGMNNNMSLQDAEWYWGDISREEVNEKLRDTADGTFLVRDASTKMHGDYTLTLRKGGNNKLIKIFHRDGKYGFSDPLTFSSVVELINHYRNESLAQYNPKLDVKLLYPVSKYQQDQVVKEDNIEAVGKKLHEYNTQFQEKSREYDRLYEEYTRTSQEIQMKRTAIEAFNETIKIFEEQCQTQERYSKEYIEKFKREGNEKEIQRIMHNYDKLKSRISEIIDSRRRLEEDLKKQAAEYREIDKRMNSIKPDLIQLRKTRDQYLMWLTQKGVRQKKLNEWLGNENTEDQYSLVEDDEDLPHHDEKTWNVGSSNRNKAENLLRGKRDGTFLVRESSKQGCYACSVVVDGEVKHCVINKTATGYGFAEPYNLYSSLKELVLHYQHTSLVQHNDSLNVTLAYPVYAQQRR
Procedure, shortened: as §1

[3] = system: T47D (PI3Kα-H1047R) cell line; assay: HTRF phospho-AKT(S473) cell assay in T47D cells; format: cell-based, human; conditions: Homo sapiens; T47D (PI3Kα-H1047R) cells, HTRF phospho-AKT(S473), 2 hours compound incubation
Procedure, shortened: (§2)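 HTRF read-out of phospho-AKT(S473) in lysates gave IC50 values after 2 h compound exposure at 37° C. Dose series was 12 points at 1:3, topping at 5 μM for T47D and 10 μM for SKBR3. Only SKBR3 received 70 ng/ml PDGF-BB during the last 15 minutes.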

[4] = system: SKBR3 (PI3Kα-Wild Type) cell line; assay: HTRF phospho-AKT(S473) cell assay in SKBR3 cells; format: cell-based, human; conditions: Homo sapiens, SK-BR-3; SKBR3 (PI3Kα-Wild Type) cells, HTRF phospho-AKT(S473), 2 hours compound incubation, PDGF-BB stimulated
Procedure, shortened: as §2

PI3Kα, sequence (P42336 whole entry): as the sequence (P42336 whole entry H1047R) above, with R1047H counted along it
PI3Kα, sequence (P27986 2-724 partner): as the sequence (P27986 2-724 partner) above

Row | Compound | IC50 [1] | IC50 [2] | IC50 [3] | IC50 [4]
1 | Cc1cc([C@@H](C)Nc2ccc(Cl)nc2C(=O)NS(C)(=O)=O)c2nc(OC3CCC3)n(C)c(=O)c2c1 [Compound 52, (R)-6-chloro-3-((1-(2-cyclobutoxy-3,6-dimethyl-4-oxo-3,4-dihydroquinazolin-8-yl)ethyl)amino)-N-(methylsulfonyl) picolinamide] | ≥ 1 µM | 0.1 to 0.25 µM | 0.5 to 1 µM | 1 to 5 µM
2 | Cc1cc([C@@H](C)Nc2ccc(Cl)nc2C(=O)NS(C)(=O)=O)c2nc(NCC3CC(F)(F)C3)n(C)c(=O)c2c1 [Compound 20, (R)-6-chloro-3-((1-(2-(((3,3-difluorocyclobutyl)methyl)amino)-3,6-dimethyl-4-oxo-3,4-dihydroquinazolin-8-yl)ethyl)amino)-N-(methylsulfonyl) picolinamide] | ≥ 1 µM | ≥ 1 µM | 0.5 to 1 µM | 1 to 5 µM
3 | Cc1cc([C@@H](C)Nc2ccc(Cl)nc2C(=O)NS(C)(=O)=O)c2nc(NCC(F)(F)F)n(C)c(=O)c2c1 [Compound 34, (R)-6-chloro-3-((1-(3,6-dimethyl-4-oxo-2-((2,2,2-trifluoroethyl)amino)-3,4-dihydroquinazolin-8-yl)ethyl)amino)-N-(methylsulfonyl) picolinamide] | ≥ 1 µM | 0.5 to 1 µM | 0.25 to 0.5 µM | 1 to 5 µM
4 | CCn1ncc2c1CN(c1nc3c([C@@H](C)Nc4ccc(Cl)nc4C(=O)NS(C)(=O)=O)cc(C)cc3c(=O)n1C)C2 [Compound 45, (R)-6-chloro-3-((1-(2-(1-ethyl-4,6-dihydropyrrolo[3,4-c]pyrazol-5(1H)-yl)-3,6-dimethyl-4-oxo-3,4-dihydroquinazolin-8-yl)ethyl)amino)-N-(methylsulfonyl) picolinamide] | 0.5 to 1 µM | 0.1 to 0.25 µM | < 0.25 µM | 1 to 5 µM
5 | C[C@@H](Nc1ccc(Cl)nc1C(=O)NS(C)(=O)=O)c1cccc2c(=O)n(C)c(N3Cc4cnn(C)c4C3)nc12 [Compound 38, (R)-6-chloro-3-((1-(3-methyl-2-(1-methyl-4,6-dihydropyrrolo[3,4-c]pyrazol-5(1H)-yl)-4-oxo-3,4-dihydroquinazolin-8-yl)ethyl)amino)-N-(methylsulfonyl) picolinamide] | ≥ 1 µM | 0.5 to 1 µM | 0.25 to 0.5 µM | 1 to 5 µM
6 | Cc1cc([C@@H](C)Nc2ccc(Cl)nc2C(=O)NS(C)(=O)=O)c2nc(OCc3cccnc3)n(C)c(=O)c2c1 [Compound 56, (R)-6-chloro-3-((1-(3,6-dimethyl-4-oxo-2-(pyridin-3-ylmethoxy)-3,4-dihydroquinazolin-8-yl)ethyl)amino)-N-(methylsulfonyl) picolinamide] | ≥ 1 µM | ≥ 1 µM | 0.25 to 0.5 µM | 1 to 5 µM
7 | Cc1cc([C@@H](C)Nc2ccc(Cl)nc2C(=O)NS(C)(=O)=O)c2nc(N(C)CC3CC3)n(C)c(=O)c2c1 [Compound 14, (R)-6-chloro-3-((1-(2-((cyclopropylmethyl) (methyl)amino)-3,6-dimethyl-4-oxo-3,4-dihydroquinazolin-8-yl)ethyl)amino)-N-(methylsulfonyl) picolinamide] | ≥ 1 µM | 0.25 to 0.5 µM | 0.25 to 0.5 µM | 1 to 5 µM
8 | Cc1cc([C@@H](C)Nc2ccc(Cl)nc2S(=O)(=O)NC(=O)C(C)C)c2nc(N3Cc4ccc(F)cc4C3)n(C)c(=O)c2c1 [Compound 80, (R)-N-((6-chloro-3-((1-(2-(5-fluoroisoindolin-2-yl)-3,6-dimethyl-4-oxo-3,4-dihydroquinazolin-8-yl)ethyl)amino)pyridin-2-yl)sulfonyl)isobutyramide] | ≥ 1 µM | 0.1 to 0.25 µM | 0.5 to 1 µM | ≥ 5 µM
9 | Cc1cc([C@@H](C)Nc2ccc(Cl)nc2S(N)(=O)=O)c2nc(N3Cc4ccc(F)cc4C3)n(C)c(=O)c2c1 [Compound 76, (R)-6-chloro-3-((1-(2-(5-fluoroisoindolin-2-yl)-3,6-dimethyl-4-oxo-3,4-dihydroquinazolin-8-yl)ethyl)amino)pyridine-2-sulfonamide] | ≥ 1 µM | < 0.1 µM | 0.25 to 0.5 µM | 1 to 5 µM
10 | Cc1cc([C@H](C)Nc2ccccc2S(=O)(=O)NC(=O)C(F)F)c2nc(N3Cc4ccc(F)cc4C3)n(C)c(=O)c2c1 (single isomer, unassigned) [Compound 103, 2,2-difluoro-N-((2-((1-(2-(5-fluoroisoindolin-2-yl)-3,6-dimethyl-4-oxo-3,4-dihydroquinazolin-8-yl)ethyl)amino)phenyl)sulfonyl)acetamide] | ≥ 1 µM | ≥ 1 µM | 1 to 5 µM | ≥ 5 µM
11 | C[C@@H](Nc1ccc(Cl)nc1C(=O)NS(C)(=O)=O)c1cc(F)cc2c(=O)n(C)c(N3Cc4ccc(F)cc4C3)nc12 [Compound 66, (R)-6-chloro-3-((1-(6-fluoro-2-(5-fluoroisoindolin-2-yl)-3-methyl-4-oxo-3,4-dihydroquinazolin-8-yl)ethyl)amino)-N-(methylsulfonyl) picolinamide] | < 0.1 µM | 0.1 to 0.25 µM | 0.25 to 0.5 µM | 1 to 5 µM
12 | C[C@@H](Nc1ccc(Cl)[nH]c1=O)c1cc(F)cc2c(=O)n(C)c(N3CCOCC3)nc12 [Compound 101, (R)-8-(1-((6-chloro-2-oxo-1,2-dihydropyridin-3-yl)amino)ethyl)-6-fluoro-3-methyl-2-morpholinoquinazolin-4(3H)-one] | ≥ 1 µM | 0.1 to 0.25 µM | 1 to 5 µM | ≥ 5 µM
13 | Cc1cc([C@@H](C)Nc2cc(C)c(Cl)nc2C(=O)NS(C)(=O)=O)c2nc(N3Cc4ccc(F)cc4C3)n(C)c(=O)c2c1 [Compound 35, (R)-6-chloro-3-((1-(2-(5-fluoroisoindolin-2-yl)-3,6-dimethyl-4-oxo-3,4-dihydroquinazolin-8-yl)ethyl)amino)-5-methyl-N-(methylsulfonyl) picolinamide] | ≥ 1 µM | ≥ 1 µM | 1 to 5 µM | ≥ 5 µM
14 | Cc1cc([C@@H](C)Nc2ccc(Cl)nc2C(=O)NS(C)(=O)=O)c2nc(N3Cc4cnn(CC5CC5)c4C3)n(C)c(=O)c2c1 [Compound 47, (R)-6-chloro-3-((1-(2-(1-(cyclopropylmethyl)-4,6-dihydropyrrolo[3,4-c]pyrazol-5(1H)-yl)-3,6-dimethyl-4-oxo-3,4-dihydroquinazolin-8-yl)ethyl)amino)-N-(methylsulfonyl) picolinamide] | 0.5 to 1 µM | < 0.1 µM | < 0.25 µM | 1 to 5 µM
15 | Cc1cc([C@@H](C)Nc2cccnc2C(=O)NS(C)(=O)=O)c2nc(N3Cc4ccc(F)cc4C3)n(C)c(=O)c2c1 [Compound 58, (R)-3-((1-(2-(5-fluoroisoindolin-2-yl)-3,6-dimethyl-4-oxo-3,4-dihydroquinazolin-8-yl)ethyl)amino)-N-(methylsulfonyl) picolinamide] | ≥ 1 µM | ≥ 1 µM | 0.25 to 0.5 µM | 1 to 5 µM
16 | C[C@@H](Nc1ccc(Cl)nc1C(=O)NS(C)(=O)=O)c1cc(F)cc2c(=O)n(C)c(N3CCc4ccccc4C3)nc12 [Compound 31, (R)-6-chloro-3-((1-(2-(3,4-dihydroisoquinolin-2(1H)-yl)-6-fluoro-3-methyl-4-oxo-3,4-dihydroquinazolin-8-yl)ethyl)amino)-N-(methylsulfonyl) picolinamide] | ≥ 1 µM | 0.1 to 0.25 µM | 0.25 to 0.5 µM | 1 to 5 µM
17 | Cc1cc([C@@H](C)Nc2ccc(Cl)nc2C(=O)NS(C)(=O)=O)c2nc(NC3CCCC3)n(C)c(=O)c2c1 [Compound 11, (R)-6-chloro-3-((1-(2-(cyclopentylamino)-3,6-dimethyl-4-oxo-3,4-dihydroquinazolin-8-yl)ethyl)amino)-N-(methylsulfonyl) picolinamide] | ≥ 1 µM | 0.25 to 0.5 µM | 0.25 to 0.5 µM | ≥ 5 µM
18 | Cc1cc([C@@H](C)Nc2cn(C)nc2C(=O)NS(C)(=O)=O)c2nc(N3Cc4ccc(F)cc4C3)n(C)c(=O)c2c1 (single isomer, unassigned) [Compound 106, 4-((1-(2-(5-fluoroisoindolin-2-yl)-3,6-dimethyl-4-oxo-3,4-dihydroquinazolin-8-yl)ethyl)amino)-1-methyl-N-(methylsulfonyl)-1H-pyrazole-3-carboxamide] | ≥ 1 µM | ≥ 1 µM | 1 to 5 µM | ≥ 5 µM
19 | Cc1cc([C@@H](C)Nc2ccc(Cl)nc2C(=O)NS(C)(=O)=O)c2nc(NCC3(C(F)(F)F)CC3)n(C)c(=O)c2c1 [Compound 24, (R)-6-chloro-3-((1-(3,6-dimethyl-4-oxo-2-(((1-(trifluoromethyl)cyclopropyl)methyl)amino)-3,4-dihydroquinazolin-8-yl)ethyl)amino)-N-(methylsulfonyl) picolinamide] | ≥ 1 µM | 0.25 to 0.5 µM | 0.25 to 0.5 µM | 1 to 5 µM
